Data reported in ChEMBL document CHEMBL3779781, “New direct inhibitors of InhA with antimycobacterial activity based on a tetrahydropyran scaffold” (Eur J Med Chem, 2016).
Values after ≈ are worked out from the molar mass of the structure shown.

Assays:
[1] = Cytotoxicity against human HepG2 cells by ATP bioluminescence assay; type: cell-based; settings: read-out: TD50 (the source's name)
[2] = tested on: Mycobacterium tuberculosis; assay: Antimycobacterial activity against Mycobacterium tuberculosis H37Rv ATCC 25618 after 2 weeks; type: functional; settings: H37Rv ATCC 25618, 336 h
[3] = Inhibition of Mycobacterium tuberculosis InhA using 2-trans-decenoyl-CoA as substrate by fluorimetric analysis in presence of NADH
[4] = Kinetic solubility of compound in DMSO/phosphate buffered saline at pH7.4 by chemiluminescent nitrogen detection method; type: physicochemical; settings: pH 7.4, read-out: Kinetic_solubility
Haemophilus influenzae [5] = assay: Antibacterial activity against Haemophilus influenzae Q1 by broth microdilution assay; type: functional
Enterococcus faecium = assay: Antibacterial activity against Enterococcus faecium X7501 by broth microdilution assay; type: functional
Haemophilus influenzae [6] = assay: Antibacterial activity against Haemophilus influenzae H128 by broth microdilution assay; type: functional
[7] = tested on: Mycobacterium tuberculosis; assay: Antimycobacterial activity against Mycobacterium tuberculosis H37Rv; type: functional
Streptococcus pneumoniae [8] = assay: Antibacterial activity against Streptococcus pneumoniae N1387 by broth microdilution assay; type: functional
[9] = tested on: Mycobacterium tuberculosis; assay: Antimycobacterial activity against Mycobacterium tuberculosis H37Rv ATCC 25618 infected in human THP1 cells assessed as reduction in cell viability after 5 days by luciferase reporter gene assay; type: functional; settings: H37Rv ATCC 25618, THP-1, 120 h
Streptococcus pneumoniae [10] = assay: Antibacterial activity against Streptococcus pneumoniae 1629 by broth microdilution assay; type: functional
Staphylococcus aureus [11] = assay: Antibacterial activity against Staphylococcus aureus WCUH29 by broth microdilution assay; type: functional
[12] = Selectivity index, ratio of TD50 for human HepG2 cells to MIC for Mycobacterium tuberculosis H37Rv ATCC 25618; type: toxicity, cell-based; settings: read-out: Selectivity Index
Streptococcus pyogenes [13] = assay: Antibacterial activity against Streptococcus pyogenes 1308007P by broth microdilution assay; type: functional
Staphylococcus aureus [14] = assay: Antibacterial activity against Staphylococcus aureus WCUH29 fmt by broth microdilution assay; type: functional
Escherichia coli = assay: Antibacterial activity against Escherichia coli 3 by broth microdilution assay; type: functional
Streptococcus pyogenes [15] = assay: Antibacterial activity against Streptococcus pyogenes 1307006P by broth microdilution assay; type: functional
Moraxella catarrhalis = assay: Antibacterial activity against Moraxella catarrhalis 1502 by broth microdilution assay; type: functional
Streptococcus pneumoniae [16] = assay: Antibacterial activity against Streptococcus pneumoniae ERY2 by broth microdilution assay; type: functional
[17] = molecular target: Voltage-gated inwardly rectifying potassium channel KCNH2 (Homo sapiens, UniProt Q12809); assay: Inhibition of human ERG by QPatch assay
Voltage-gated inwardly rectifying potassium channel KCNH2, sequence (Q12809 whole entry): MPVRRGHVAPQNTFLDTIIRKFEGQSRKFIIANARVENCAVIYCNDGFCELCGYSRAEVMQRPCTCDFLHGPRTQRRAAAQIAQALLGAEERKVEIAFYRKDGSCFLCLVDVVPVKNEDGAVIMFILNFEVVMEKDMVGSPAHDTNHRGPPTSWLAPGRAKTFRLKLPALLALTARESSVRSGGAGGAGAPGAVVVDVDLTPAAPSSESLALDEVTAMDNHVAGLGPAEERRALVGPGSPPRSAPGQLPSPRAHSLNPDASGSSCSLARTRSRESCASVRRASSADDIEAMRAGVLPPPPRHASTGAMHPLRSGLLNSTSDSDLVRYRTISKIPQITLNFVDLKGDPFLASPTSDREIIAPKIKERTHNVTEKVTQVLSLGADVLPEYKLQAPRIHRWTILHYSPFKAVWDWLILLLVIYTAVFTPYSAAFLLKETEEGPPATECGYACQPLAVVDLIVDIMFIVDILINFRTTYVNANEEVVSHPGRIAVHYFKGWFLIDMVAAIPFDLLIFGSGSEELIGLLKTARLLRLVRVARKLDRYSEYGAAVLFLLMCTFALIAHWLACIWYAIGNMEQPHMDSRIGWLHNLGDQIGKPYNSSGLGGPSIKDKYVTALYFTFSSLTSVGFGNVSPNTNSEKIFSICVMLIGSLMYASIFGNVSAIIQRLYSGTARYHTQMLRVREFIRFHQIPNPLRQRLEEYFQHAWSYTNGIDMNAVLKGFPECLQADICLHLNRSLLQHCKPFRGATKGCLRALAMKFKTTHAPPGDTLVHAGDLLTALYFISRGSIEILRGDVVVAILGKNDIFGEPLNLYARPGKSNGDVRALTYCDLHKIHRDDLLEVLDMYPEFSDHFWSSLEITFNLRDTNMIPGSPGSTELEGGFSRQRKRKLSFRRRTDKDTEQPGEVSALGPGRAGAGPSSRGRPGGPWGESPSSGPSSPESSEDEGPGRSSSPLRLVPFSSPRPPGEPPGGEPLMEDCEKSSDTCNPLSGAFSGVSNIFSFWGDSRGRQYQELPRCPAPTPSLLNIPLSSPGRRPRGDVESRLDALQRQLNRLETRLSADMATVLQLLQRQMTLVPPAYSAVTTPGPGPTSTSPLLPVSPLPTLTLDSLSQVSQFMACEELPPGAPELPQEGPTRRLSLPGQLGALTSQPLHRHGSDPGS

[18] = tested on: Mycobacterium tuberculosis; assay: Antimycobacterial activity against Mycobacterium tuberculosis H37Rv by broth microdilution assay; type: functional
Enterococcus faecalis = assay: Antibacterial activity against Enterococcus faecalis 1 by broth microdilution assay; type: functional
Haemophilus influenzae [19] = assay: Antibacterial activity against Haemophilus influenzae H128 with Acr A- genotype by broth microdilution assay; type: functional
Staphylococcus aureus [20] = assay: Antibacterial activity against Staphylococcus aureus Oxford by broth microdilution assay; type: functional

Structure (SMILES)	CC50 [1]	MIC [2]	IC50 [3]	solubility kinetic [4]	other results
Cc1cc(C)n(Cc2ccc(C(=O)NCC3(c4ccc5c(c4)OCO5)CCOCC3)cc2)n1	> 100 µM	125 µM (≈ 55.9 µg/mL)	7.94 µM	≥ 478 µM	
Cc1cnc(Nc2ccc(C(=O)NCC3(c4nc(-c5ccccc5)cs4)CCOCC3)cc2)s1	> 100 µM	> 80 µM	> 10 µM	< 1 µM	
O=C(NCC1(c2nc(-c3ccccc3)cs2)CCOCC1)c1ccc(CN2CCCCC2)cc1	79.4 µM	> 125 µM	> 1 µM	≥ 396 µM	
O=C(NCC1(c2nc(-c3ccccc3)cs2)CCOCC1)c1ccc(-c2cnco2)cc1	79.4 µM	125 µM (≈ 55.7 µg/mL)	> 1 µM	71 µM (≈ 31.6 µg/mL)	
Cc1cc(C)n(-c2ccc(C(=O)NCC3(c4nc(-c5ccccc5)cs4)CCOCC3)cc2)n1	87.1 µM	80 µM (≈ 37.8 µg/mL)	> 100 µM	33 µM (≈ 15.6 µg/mL)	
COc1ccc(C2(CNC(=O)c3ccc(Cn4nc(C)cc4C)cc3)CCOCC2)cc1	> 100 µM	> 125 µM	6.38 µM	≥ 458 µM	
Cc1cc(C)n(Cc2ccc(C(=O)NCC3(c4nc(-c5ccccc5)cs4)CCOCC3)cc2)n1	100 µM	11.7 µM (≈ 5.69 µg/mL)	0.02 µM	115 µM (≈ 56 µg/mL)	MIC80 (Haemophilus influenzae [5]): > 64 µg/mL; MIC80 (Enterococcus faecium): > 64 µg/mL; MIC80 (Haemophilus influenzae [6]): > 64 µg/mL; MIC [7]: 7.8 µM; MIC80 (Streptococcus pneumoniae [8]): > 64 µg/mL; IC90 [9]: 3.98 µM; MIC80 (Streptococcus pneumoniae [10]): > 64 µg/mL; MIC80 (Staphylococcus aureus [11]): > 64 µg/mL; selectivity ratio [12]: 8.5; MIC80 (Streptococcus pyogenes [13]): > 64 µg/mL; MIC80 (Staphylococcus aureus [14]): > 64 µg/mL; MIC80 (Escherichia coli): > 64 µg/mL; MIC80 (Streptococcus pyogenes [15]): > 64 µg/mL; MIC80 (Moraxella catarrhalis): 32 µg/mL (≈ 65.8 µM); MIC80 (Streptococcus pneumoniae [16]): > 64 µg/mL; IC50 [17]: 44.9 µM; MIC80 [18]: 5.7 µg/mL (≈ 11.7 µM); MIC80 (Enterococcus faecalis): > 64 µg/mL; MIC80 (Haemophilus influenzae [19]): > 64 µg/mL; MIC80 (Staphylococcus aureus [20]): > 64 µg/mL
Cn1ccc(Nc2ccc(C(=O)NCC3(c4nc(-c5ccccc5)cs4)CCOCC3)cc2)n1	79.4 µM	> 125 µM	5.56 µM	48 µM (≈ 22.7 µg/mL)	
O=C(NCC1(c2nc(-c3ccccc3)cs2)CCOCC1)c1ccc(-n2ccnc2)cc1	> 100 µM	> 125 µM	> 1 µM	193 µM (≈ 85.8 µg/mL)	
O=C(NCC1(c2nc(-c3ccccc3)cs2)CCOCC1)c1ccc(-n2cncn2)cc1	> 100 µM	125 µM (≈ 55.7 µg/mL)	> 10 µM	191 µM (≈ 85.1 µg/mL)	
O=C(NCC1(c2nc(-c3ccccc3)cs2)CCOCC1)c1ccc(Nc2nncs2)cc1	63.1 µM	> 125 µM	> 10 µM	29 µM (≈ 13.9 µg/mL)	
O=C(NCC1(c2nc(-c3ccccc3)cs2)CCOCC1)c1ccc(Nc2ccccn2)cc1	63.1 µM	> 80 µM	> 10 µM	12 µM (≈ 5.65 µg/mL)	
Cn1c(Nc2ccc(C(=O)NCC3(c4nc(-c5ccccc5)cs4)CCOCC3)cc2)nc2ccccc21	20 µM	94 µM (≈ 49.2 µg/mL)	> 10 µM	10 µM (≈ 5.24 µg/mL)	
O=C(NCC1(c2nc(-c3ccccc3)cs2)CCOCC1)c1ccc(Nc2nc3ccccc3s2)cc1	12.6 µM	> 125 µM	> 10 µM	4 µM (≈ 2.11 µg/mL)	
O=C(NCC1(c2nc(-c3ccccc3)cs2)CCOCC1)c1ccc(N2CCOCC2)cc1	> 100 µM	> 125 µM	> 1 µM	138 µM (≈ 64 µg/mL)	
COc1ccccc1-c1csc(C2(CNC(=O)c3ccc(Cn4nc(C)cc4C)cc3)CCOCC2)n1	50.1 µM	5 µM (≈ 2.58 µg/mL)	0.036 µM	78 µM (≈ 40.3 µg/mL)	selectivity ratio [12]: 10
COc1cccc(-c2csc(C3(CNC(=O)c4ccc(Cn5nc(C)cc5C)cc4)CCOCC3)n2)c1	50.1 µM	20 µM (≈ 10.3 µg/mL)	0.323 µM	72 µM (≈ 37.2 µg/mL)	
Cc1cc(C)n(Cc2ccc(C(=O)NCC3(c4ccccn4)CCOCC3)cc2)n1	> 100 µM	> 125 µM	> 10 µM	≥ 445 µM	
Cc1cc(C)n(Cc2ccc(C(=O)NCC3(c4ccc(-c5ccccc5)cc4)CCOCC3)cc2)n1	79.4 µM	16 µM (≈ 7.67 µg/mL)	0.029 µM	77 µM (≈ 36.9 µg/mL)	selectivity ratio [12]: 5
NNC(=O)c1ccncc1 [ISONIAZID]					MIC [7]: 0.5 µg/mL
